Source: US11235020B2, “Methods and compositions for inhibiting glyoxalase 1 (GLO1)” (priority 2013, dated 2022)

Legend:
[1] = system: GABAA receptors in hippocampal neurons; experiment: Whole-cell patch clamp in hippocampal neurons (HN); format: cell-based, rat; conditions: for increase of GABA-evoked currents: 500 nM modulator co-applied with 10 μM GABA; for increase of MG-evoked currents: 500 nM modulator co-applied with 10 μM MG
Procedure: (§1) Reagents: All reagents were obtained from Sigma-Aldrich.
Neurons were maintained in neurobasal medium with B27 supplement and glutamax in a humidified atmosphere with 5% CO2 at 37° C.
(§2) Filter and sampling frequencies were 5 and 25 kHz, respectively, for voltage-clamp experiments and 1 and 10 kHz, respectively, for current-clamp recording. Experiments were performed at 32° C. using a feedback-controlled heated perfusion system (Warner Instruments). Vm, ligand-gated currents, and potassium channel currents were studied in a bath solution containing 1 mM CaCl2, 1 mM MgCl2, 4 mM KCl, 140 mM NaCl, 5 mM glucose, and 10 mM HEPES (pH 7.4). […] Electrodes were coated with Sigmacote (Sigma) prior to use.
(§3) Ligand-gated currents: Ligand-gated currents were studied in voltage-clamp mode by application of reagents to cells held at −50 mV.

locomotion in Cd-1 mice = experiment: Open field test after i.p. glyceraldehyde; format: in vivo, mouse; conditions: GA i.p., tested 10 min after injection
Procedure: GA is rapidly converted into MG. Cd-1 mice (Charles River, Portage Mich.) were treated i.p. With vehicle (0.9% NaCl) or GA at the indicated doses. Ten minutes after injection, mice were tested in the open field (OF) test (locomotor chambers). Behavioral data were collected at 5 and 10 minutes. Because vehicle-treated mice differed in total distance traveled between the testing days, the data were not combined into a single analysis. Statistical analyses included repeated-measures anova for the factor treatment. The repeated measures were total distance (at 5 and 10 min) and % center time (at 5 and 10 min). For comparison of vehicle and GA at individual time points, a t-test was used. […] This would be an additional means of obtaining desirable clinical effects, including anxiolytic, antidepressant, anti-epileptic, and induction of sleep.

[2] = system: GABAA receptors in macropatches excised from CGN; experiment: Macropatch recording from CGN; format: cell-based, rat; conditions: 10 μM; SR 10 μM at the extracellular face (pipette)
Procedure: Macropatch recording: Macropatch recording was performed with 1.5-2 MΩ electrodes filled with bath solution. The inside of excised patches was perfused with electrode solution containing the indicated reagents. SR was added to the electrode where indicated.

[3] = system: GABAA receptors in cerebellar granule neurons; experiment: Whole-cell patch clamp in cerebellar granule neurons (CGN); format: cell-based, rat
Procedure: as §1
Culture of rat CGN: CGN were cultured from mixed-sex Sprague-Dawley rats. Tissue was dissected from 6- to 8-day-old rats. Cells were suspended in minimal essential medium supplemented with 10% fetal calf serum, 26 mM glucose, 19 mM KCl, 2 mM 1-glutamine, and penicillin/streptomycin (50 IU/ml and 50 μg/ml). Cells were seeded on poly-1-lysine-coated coverslips and incubated in a humidified atmosphere containing 5% CO2 at 37° C. After 48 hours, the culture medium was replaced with minimal essential medium supplemented with 10% horse serum, 26 mM glucose, 19 mM KCl, 2 mM 1-glutamine, penicillin/streptomycin (50 IU/ml and 50 μg/ml), and 80 μM 1-fluorodeoxyuridine. Culture medium was exchanged every three days. All recordings were made from cells between days 6 to 9 in culture.
as §2, §3

[4] = system: depression-like behavior in mice; experiment: Chronic forced swim test (cFST), osmotic minipump; format: in vivo, mouse; conditions: fluoxetine 18 mg/kg/day, 14 days
Procedure: To fully assess the therapeutic potential of GLO1 inhibitors, it is necessary to utilize behavioral models sensitive to chronic administration. These models are highly informative as the therapeutic onset of antidepressant action mimics clinical onset in humans. pBBG was administered by osmotic minipumps (Alzet) for 14 days at various doses (0, 5, 10, 15, 30 and 60 mg/kg/day) to establish a dose response curve. Osmotic minipumps are ideal for chronic treatment as they release a constant volume at a very slow rate minimizing the stress of multiple injections.

[5] = system: anxiety-like behavior in C57BL6/J mice; experiment: OFT after bilateral microinjection into the basolateral amygdala (BLA); conditions: midazolam 4 mM, 0.5 ul bilateral into BLA, over 30 m
[6] = system: anxiety-like behavior and locomotion in mice; experiment: Open field (OF) test; format: in vivo, mouse; conditions: B6 mice
Procedure: OF test: Mice were placed into the center of the OF, and activity was monitored for five to ten minutes. The apparatus was illuminated to approximately 40 lux. Data were collected and processed using the manufacturer's software (AccuScan Instruments).
OF test: Ten minutes post-injection, mice were placed into the center of the OF. The apparatus was illuminated to approximately 40 lux. Behavior was measured as described above.
OF test replication studies: Ten to twenty minutes post-injection, mice were tested in the OF for five to ten minutes. In some experiments, behavior was scored as described above. In other experiments, mice were tested in the OF, and behavior was automatically scored by the Noldus Ethovision System. For mice tested in the Noldus system, the apparatus was illuminated to approximately 1,000 lux.
Chronic MG administration: For five days, mice were injected twice daily with vehicle or MG (4 mg/kg). Twelve hours after the final injection, mice were tested in the OF as described above.
Pure MG: Pure MG was obtained from Dr. John Termini at the City of Hope, Duarte, Calif. It was administered at the indicated doses by i.p. injection. Mice were tested as described above.
OF test: Two hours post-injection, mice were tested in the OF test as described above. The center size was 10×10 cm. The apparatus was illuminated to approximately 40 lux.

mice = experiment: Hypothermia (rectal temperature); format: in vivo, mouse; conditions: 300 mg/kg i.p., B6 mice
Procedure: Hypothermia: Thirty minutes post-injection, rectal temperature was measured with a digital thermometer.

[7] = system: motor coordination in mice; experiment: Balance beam test; format: in vivo, mouse; conditions: 300 mg/kg i.p., B6 mice
Procedure: The balance beam was 97 cm×9.5 mm and elevated to 46 cm. Mice were tested on the balance beam, and missteps were counted.
Balance beam: The balance beam test was performed as described above. Ten minutes post-injection, mice were tested on the balance beam, and missteps were recorded.

CN1C(=O)CN=C(c2ccccc2)c2cc(Cl)ccc21 [Diazepam, diazepam]
increase of GABA-evoked currents [1]: approximately 45%
increase of MG-evoked currents [1]: approximately 60%

O=CC(O)CO (stereo not drawn) [GA, glyceraldehyde]
locomotor effect in the open field (locomotion in Cd-1 mice): has locomotor depressant effects

NCCCC(=O)O [GABA, gamma-aminobutyric acid, reference compound]
current on application to the intracellular face of macropatches [2]: did not elicit a current

Br.COc1ccc(-c2ccc(=N)n(CCCC(=O)O)n2)cc1 [SR, reference compound]
inhibition of Vm changes induced by MG and GABA ([3]; 10 μM SR, 10 μM MG or GABA): > 95%
inhibition of current-density changes induced by MG and GABA ([3]; 10 μM SR, 10 μM MG or GABA): > 95%
current on application to the intracellular face of macropatches [2]: this current was inhibited when SR was applied to the extracellular face

CNCCC(Oc1ccc(C(F)(F)F)cc1)c1ccccc1 (stereo not drawn) [fluoxetine]
depression-like behavior in the cFST [4]: reduces depression-like behavior in the forced swim test

Cc1ncc2n1-c1ccc(Cl)cc1C(c1ccccc1F)=NC2 [midazolam]
increase of GABA-evoked currents [1]: approximately 27%
increase of MG-evoked currents [1]: approximately 40%
center duration in the OFT [5]: increased center duration in the OFT

CC(=O)C=O [pure MG, methylglyoxal]
time in the center of the OF ([6]; pure MG 5 mg/kg, 10 min later): increased time in the center of the OF
total distance traveled in the OF ([6]; pure MG 300 mg/kg): reduced total distance traveled in the OF
hypothermia (mice): caused hypothermia
footslips on the balance beam (ataxia) [7]: increased footslips on the balance beam
inward currents in CGN ([3]; 10 μM): evoked inward currents in CGN

Cc1ccc(-c2nc3ccc(C)cn3c2CC(=O)N(C)C)cc1 [zolpidem]
increase of GABA-evoked currents [1]: approximately 17%
increase of MG-evoked currents [1]: approximately 15%
